{
  "source": "patent US6495376B1",
  "about": "“Methods and compositions for regulating protein-protein interactions” (Beth Israel Deaconess Medical Center, priority 1999, dated 2002)",
  "key": {"WFYSPFLE": {"target": "WFYSPFLE", "assay": "Fluorescence anisotropy binding to fluorescein-labeled nonphosphorylated control peptide", "settings": "for WFYSPFLE Kd: nonphosphorylated peptide"}, "phosphorylated tau": {"system": "phosphorylated tau", "sequence (P10636 45-216 isoform P10636-2 limits assumed)": "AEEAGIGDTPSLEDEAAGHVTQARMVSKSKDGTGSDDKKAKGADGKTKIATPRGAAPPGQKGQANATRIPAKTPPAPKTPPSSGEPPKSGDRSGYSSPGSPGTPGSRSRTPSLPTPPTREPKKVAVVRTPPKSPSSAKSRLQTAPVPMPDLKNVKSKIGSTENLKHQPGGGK", "assay": "GST-Pin1 pulldown of tau", "type": "binding", "settings": "for binding to Cdc2 phosphorylated tau: tau phosphorylated by Cdc2 in vitro", "excerpt": "Pin1 binds and regulates the function of a defined subset of mitotic phosphoproteins by interacting with conserved phosphorylated Ser/Thr-Pro motifs that are also recognized by MPM-2, a mitosis-specific, phosphorylation-dependent monoclonal antibody (mAb) (Yaffe, M. B. et al., Science 278:1957-1960 (1997); Shen, M. et al., Genes Dev. 12:706-720 (1 998)). Tau is an MPM-2 antigen phosphorylated on multiple Ser/Thr-Pro motifs during mitosis (Illenberger, S. et al., Mol Biol Cell 9:1495-1512 (1998)). Experiments were undertaken to determine whether Pin1 binds tau. Tau isoform was either synthesized by in vitro transcription and translation in the presence of ^35S-Met or produced in bacteria as an N-terminal His-tagged protein, followed by purification using NTA-Ni columns (Yaffe, M. B. et al., Science 278:1957-1960 (1997); Shen, M. et al., Genes Dev. 12:706-720 (1998)). To generate interphase- and mitosis-specific phosphorylated form of tau, tau was incubated with Xenopus interphase and mitotic extracts, respectively (Shen, M. et al., Genes Dev. 12:706-720 (1998)). To prepare Cdc2 phosphorylated tau, purified recombinant tau was incubated with purified cyclin B/Cdc2 (UBI) for 6 to 12 hr at room temperature in a buffer containing 500 μM cold ATP, plus trace [^32P]-ATP in some experiments, (Vincent, I. et al., J Neurosci 17:3588-3598 (1997)).\nPin1 interactions with tau in AD brains were examined using a GST-Pin1 pulldown assay (Shen, M. et al., Genes Dev. 12:706-720 (1998)). Glutathione beads containing GST or GST-Pin1 were incubated with normal or AD brain extracts, or PHFs purified (Vincent, I. J. and Davies, P. Proc Natl Acad Sci USA 89:2878-2882 (1992)), and proteins associated with the beads were subjected to immunoblotting analysis using CP27, which recognizes all forms of tau. Recombinant and mutant Pin1 proteins were produced as N-terminal GST or His-tagged fusion proteins (Shen, M. et al., Genes Dev. 12:706-720 (1998)). PHFs were purified by immunoaffinity chromatography (Vincent, I. J. and Davies, P. Proc Natl Acad Sci USA 89:2878-2882 (1992)).\nTo determine whether Pin1 interacts with pT231-tau, GST-Pin1 beads were used to isolate tau from AD brain extracts or PHFs and T231 phosphorylation detected using CP9. Tau isolated by Pin1 beads was strongly immunoreactive with CP9. […] Thus, Pin1 binds pT231-tau through its WW-domain."}, "WFYpSPFLE (Pintide)": {"target": "WFYpSPFLE (Pintide)", "assay": "Fluorescence anisotropy (polarization) binding to fluorescein-labeled phosphorylated Pintide analogue", "settings": "for binding to Pintide (in words): fluorescence anisotropy", "excerpt": "To determine the affinity of Pin1, and its WW or PPIase domain for phosphopeptides, peptides were labeled with fluorescein and their interactions with Pin1 measured using quantitative fluorescence anisotrophy. To prevent nonspecific labeling, a Pintide analogue (WFYpSPFLE) SEQ ID NO: 9 was used, which binds Pin1 with a high affinity based on the peptide library screen as described by (Lu, K. P. et al., U.S. Ser. No. 60/058,164 (1997), the teachings of which are incorporated herein in their entirety.\nPintide and its nonphosphorylated counterpart were synthesized and incubated with GST-Pin1 or the GST-WW-domain of Pin1 in a binding buffer, using established procedures (Shen, M. et al., Genes & Dev 12:706 (1998)). After a 1 hr incubation, mitotic HeLa cell extracts were added and subjected to GST pull down experiments, followed by immunoblotting analysis using the MPM-2 antibody. To obtain semi-quantitative data, films of immunoblots were scanned at the region of 55 kDa, the major Pin1-binding protein, and data analyzed using ImageQuan (ScanJet II CX). The peptide binding constants were measured using a fluorescence polarization assay (Jiskoot, W. et al., Anal Biochem 196:421 (1991)). Peptides were fluorescein labeled at the N-terminus using the Fluorescein Amine Labeling Kit (Pan Vera Corp.) and purified by TLC according to the manufacturer's […]. To prevent nonspecific labeling, a Pintide analogue (WFYpSPFLE) SEQ ID NO: 8 and the nonphosphorylated control were used. Various concentrations of Pin1 and its mutant proteins were incubated with 0.1 μM of the labeled peptides in a binding buffer containing 50 mM HEPES, pH 7.4, 100 mM NaCl, 2% glycerol. Fluorescence polarization values were obtained using a Pan Vera Beacon 2000 system, as described by the manufacturer."}, "[1]": {"settings": "high affinity binding site, read-out: WFYpSPFLE Kd(μM) High affinity"}},
  "note": "Where “and” joins values, the source holds several entries; their conditions need not be identical. Identical values can stand only once. Entries after “also recorded” stand apart in the source; their conditions may differ. Like-named read-outs stand apart in the source and are kept apart here.",
  "data": [
    {"substance": "Pin1 WW-domain: N-terminal WW-domain (amino acids 1-54) of Pin1 (MADEEKLPPGWEKRMSRSSGRVYYFNHITNASQWERPSGNSSSGGKNGQGEPAR; left off: a dimerising Fc or GST)", "values": [
      {"measurement": "Kd (μM) Pintide nonphosphorylated WFYSPFLE", "setting": "WFYSPFLE; GST-WW-domains, N.B., not binding detected", "value": "N.B."},
      {"measurement": "WFYSPFLE Kd", "setting": "WFYSPFLE", "value": "No binding was detected; also recorded: Not binding"},
      {"measurement": "binding to Cdc2 phosphorylated tau", "setting": "phosphorylated tau", "value": "bound Cdc2 phosphorylated tau"},
      {"measurement": "Kd", "setting": "WFYpSPFLE (Pintide); GST-WW-domains, fluorescein-labeled peptide, average of three independent experiments, read-out: Kd (μM) Pintide WFYpSPFLE", "value": 1, "unit": "µM"},
      {"measurement": "binding to Pintide (in words)", "setting": "WFYpSPFLE (Pintide)", "value": "bound Pintide"},
      {"measurement": "Kd", "setting": "WFYpSPFLE (Pintide); [1]", "value": "1.2 µM and 1 µM"}
    ]},
    {"substance": "Pin1: wild-type human prolyl isomerase (PPIase) Pin1 with N-terminal WW-domain; tag cleaved in Table 2", "values": [
      {"measurement": "WFYSPFLE Kd", "setting": "WFYSPFLE", "value": "No binding was detected; also recorded: Not binding"},
      {"measurement": "binding to tau of brain extracts", "setting": "phosphorylated tau; AD brain extracts, PHFs or age-matched normal brain extracts", "value": "did not bind tau in age-matched normal brain extracts"},
      {"measurement": "binding to tau incubated with Xenopus extracts", "setting": "phosphorylated tau; interphase or mitotic extracts", "value": "did bind tau that was phosphorylated by mitotic extracts"},
      {"measurement": "binding to Cdc2 phosphorylated tau", "setting": "phosphorylated tau", "value": "bound Cdc2 phosphorylated tau"},
      {"measurement": "binding to Pintide (in words)", "setting": "WFYpSPFLE (Pintide)", "value": "bound Pintide"},
      {"measurement": "Kd", "setting": "WFYpSPFLE (Pintide); [1]", "value": 1.2, "unit": "µM"},
      {"measurement": "Kd", "setting": "WFYpSPFLE (Pintide); low affinity binding site, read-out: WFYpSPFLE Kd(μM) Low affinity", "value": 11, "unit": "µM"}
    ]}
  ]
}
